Assay results: patent US4575550A, “Platinum complexes” (Shionogi & Co., Ltd., priority 1981, dated 1986)

Columns and labels:
[1] = system: Sarcoma 180 tumor cells; assay: Antitumor activity against Sarcoma-180 (Experiment 4, intravenous for 5 days); type: in vivo, DS mice; details: i.v., 5% glucose solution; for ED50: 14400 min
Description: (§1) Sarcoma 180 tumor cells (5×10^6 cells) are inoculated to DS mice (6 to 8 mice are employed in each test group) subcutaneously, and a predetermined amount of the test compounds is administered intraperitoneally for 5 days continuously from the next day of the inoculation.
The test was carried out in the same manner as in Experiment 1, wherein the test compounds were administered intravenously for 5 days.
The evaluation was made in the same manner as in Experiment 1.

[2] = system: Sarcoma 180 tumor cells; assay: Antitumor activity against Sarcoma-180 (Experiment 1, intraperitoneal for 5 days); type: in vivo, DS mice; details: i.p.; for ED50 (effective dose which inhibits the growth of tumors by 50%): 14400 min
Description: as §1

[3] = system: Leukemia L1210 ascites cells; assay: Antitumor activity against L1210 (Experiment 2, intraperitoneal); type: in vivo, BDF1 mice; details: i.p.
Description: Leukemia L1210 ascites cells (10^5 cells) in mice are intraperitoneally inoculated to BDF1 mice (4 to 10 mice are employed in each test group), and on the next day a predetermined amount of the test compounds is administered intraperitoneally. The solvent for injection consists of 0.9% NaCl, 0.4% Polysorbate 80, 0.5% CMC, and 0.5% benzyl alcohol suspension.
From the average survival days (a) in the test group and those (b) of the untreated control group, the increase of lifespan (ILS) is calculated according to the following expression. [formula]

[4] = system: kidney; assay: Nephro-toxicity (Experiment 3, once intraperitoneally); type: in vivo, male Sprague Dawley rats; parameters: key: .uparw.: increase; slight increase; .dwnarw.: decrease; ±: no change; details: once i.p., (A) 10 mg/kg, (B) 5 mg/kg, solvent 1: 5% glucose
From the text: Seven weeks-old male Sprague Dawley rats are separately accommodated in metabolic cages of stainless steel, and solid feed (Clea Japan, INC., CA-1 for breeding) and water are given so that they can take them freely. They are adapted for 3 days and then the test compounds are once administered to rats intraperitoneally at 10:00 a.m. […] The urine excreted during a period of 10 a.m. on the day of administration to 10 a.m. on the next day is defined as urine of the first day; on the urine of the 0-4th days the volume of urine excreted, creatinine, osmotic pressure, urinary enzyme N-acetyl-β-D-glucosaminidase (NAG), and lysozyme (LEZ) are measured, and further urinary protein and urinary sugar are examined with Labstix®. In the morning on the 5th day the rats are anatomized under anesthesia with Ouropan-Soda®(Shionogi & Co., Ltd.; Hexobarbital sodium), and the blood and pathologic specimens of the kidney and the liver are collected in order to determine the level of plasma urea nitrogen and creatinine, and osmotic pressure.

[5] = 0.9% NaCl, 0.4% Polysorbate 80, 0.5% CMC, 0.5% benzyl alcohol suspension
[6] = dose 2 × 1 (dose unit not given)
[7] = dose 5 × 1 (dose unit not given)
[8] = dose 10 × 1 (dose unit not given)
[9] = dose 20 × 1 (dose unit not given)

Question: With `N.N.O=C1C[O][Pt][O]1` [C, Glycolato-cis-diammineplatinum(II)] as the compound, how does the ED50 [1] read?
Answer: 18.7 mg/kg

Question: What does the source list for `N.N.[Cl][Pt][Cl]` [(B), Cisplatin, reference compound]?
Answer: ED50 (effective dose which inhibits the growth of tumors by 50%) [2, 5]: 7.3 mg/kg; ED50 (effective dose which inhibits the growth of tumors by 50%) ([2]; solvent 5% glucose solution): 5.8 mg/kg; increase of lifespan (ILS) [3, 6]: 11%; increase of lifespan (ILS) [3, 7]: 29%; increase of lifespan (ILS) [3, 8]: > 84%; increase of lifespan (ILS) [3, 9]: -26%; ED50 [1]: 4.5 mg/kg

Question: With `N.N.O=C1COCC(=O)[O][Pt][O]1` [D, Diglycolato-cis-diammineplatinum(II)] as the compound, how does the “CI (curative index)” value [1] read?
Answer: 3.3

Question: And the LD50 [1]?
Answer: 80.0 mg/kg

Question: What about the ED50 [1] of the same compound?
Answer: 24.1 mg/kg

Question: Which results are given for Glycerato-cis-diammineplatinum(II)?
Answer: CI (curative index) [1]: 4.2; LD50 [1]: 186.6 mg/kg; ED50 [1]: 44 mg/kg

Question: For “Glucuronato-cis-diammineplatinum(II) [(A)]”, which “CI (curative index)” value [2, 5] is on record?
Answer: 3.3

Question: And the “LD50 (50% lethal dose)” value [2, 5]?
Answer: 113.5 mg/kg

Question: And the “ED50 (effective dose which inhibits the growth of tumors by 50%)” value [2, 5]?
Answer: 34 mg/kg

Question: What about the “CI (curative index)” value ([2]; solvent 5% glucose solution) of the same compound?
Answer: 2.8

Question: What about the “LD50 (50% lethal dose)” value ([2]; solvent 5% glucose solution) of the same compound?
Answer: 93.4 mg/kg

Question: And the “ED50 (effective dose which inhibits the growth of tumors by 50%)” value ([2]; solvent 5% glucose solution)?
Answer: 33.4 mg/kg

Question: And the “increase of lifespan (ILS)” value [3, 6]?
Answer: 4%

Question: What about the “increase of lifespan (ILS)” value [3, 7] of the same compound?
Answer: 12%

Question: What about the “increase of lifespan (ILS)” value [3, 8] of the same compound?
Answer: 14%

Question: What about the “increase of lifespan (ILS)” value [3, 9] of the same compound?
Answer: > 55%

Question: And the “Body Weight (g)” value [4]?
Answer: ±

Question: And the “Creatinine Clearance” value [4]?
Answer: ±

Question: What about the “Excrement of Creatinine (mg/24 hrs./100 g BW)” value [4] of the same compound?
Answer: ±

Question: And the “Excrement of Solute (mOsm/24 hrs./100 g BW)” value [4]?
Answer: ±

Question: What about the “Kidney Weight” value [4] of the same compound?
Answer: ±

Question: What about the “LEZ (urinary lysozyme)” value [4] of the same compound?
Answer: ±

Question: And the “Liver Weight” value [4]?
Answer: ±

Question: What about the “Osmotic Pressure of Urine (mOsm/kg)” value [4] of the same compound?
Answer: ±

Question: What about the “Urinary Glucose” value [4] of the same compound?
Answer: ±

Question: What about the “Urinary Protein” value [4] of the same compound?
Answer: ±

Question: What about the “Volume of Urine (ml/24 hrs.)” value [4] of the same compound?
Answer: ±

Question: And the “Plasma Creatinine” value ([4]; 5th day)?
Answer: ±

Question: And the “Plasma Osmotic Pressure” value ([4]; 5th day)?
Answer: ±

Question: And the “Plasma Urea Nitrogen” value ([4]; 5th day)?
Answer: ±

Question: What about the “CI (curative index)” value [1] of the same compound?
Answer: 2.9

Question: What about the LD50 [1] of the same compound?
Answer: 186 mg/kg

Question: And the ED50 [1]?
Answer: 63.4 mg/kg
